The text below walks through data of patent US20100160266A1, “ORGANIC COMPOUNDS” (NABRIVA TH[…], priority 2005, published 2010).

The assay relates to anaerobic bacteria. Briefly: in vitro acne assays: MIC by agar dilution technique on Wilkins-Chalgren Agar (NCCLS guidelines). The format is cell-based. Conditions: compared with the same pleuromutilin in the form of a hydrochloride. How it is done:
E.g. in commercially available in vitro acne assays (the determination of the minimal inhibitory concentration (MIC) is performed according to the approved NCCLS guidelines^1) by agar dilution technique on Wilkins-Chalgren Agar—1) National committee for clinical laboratory standards. Methods for Antimicrobial susceptibility testing of anaerobic bacteria. 1993.

As to `C=CC1(C)CC(OC(=O)CSC2CCCN(C(=O)C(N)C(C)C)C2)C2(C)C(C)CCC3(CCC(=O)C32)C(C)C1O` [Example 1, 14-O—[(N—((R)-Valyl)-piperidine-3(S)-yl)-sulfanylacetyl)-mutilin], the “activity in in vitro acne assays (minimal inhibitory concentration, MIC)” value was “remarkably better activity”.
